What all share (type): binding
The target of experiment [1] is T1, human MDM4 protein (amino acids 2-185) (Homo sapiens, UniProt O15151).
T1 construct: human MDM4 protein (amino acids 2-185); made in house
T1 sequence (O15151 2-185): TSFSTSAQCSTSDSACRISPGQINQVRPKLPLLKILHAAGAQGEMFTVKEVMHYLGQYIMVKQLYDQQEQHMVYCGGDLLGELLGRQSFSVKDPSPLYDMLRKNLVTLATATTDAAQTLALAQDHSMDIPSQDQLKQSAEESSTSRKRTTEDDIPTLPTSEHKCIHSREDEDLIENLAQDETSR
The experiment can be described thus: p53-MDM4 TR-FRET assay (p53-MDM4 Assay 1). The conditions noted are these: 2.5 nM MDM4-biotinylated, 10 nM Cy5-p53 peptide; read-out: IC50 (μM) of p53-Hdm4 inhibition (TR-FRET) Assay 1. In a few lines:
(§1)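 Peptide displacement read as 665/620 nm TR-FRET ratio (excitation 340 nm) after 15 min room temperature with 10 nM Cy5-p53 aa18-26, following 15 min preincubation of Eu-streptavidin (0.625 nM) with biotinylated MDM4 aa 2-185 (2.5 nM) or MDM2 aa 2-188 (1.25 nM); IC50 curve-fitted. MDM2 Assay 2: MDM2 and Eu-streptavidin each 0.1 nM.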
In general terms: TR-FRET usually uses a lanthanide donor and a delayed reading to cut background.

Experiment [2] deals with T2, human MDM2 protein (amino acids 2-188) (Homo sapiens, UniProt Q00987).
T2 construct: human MDM2 protein (amino acids 2-188); made in house
The experiment can be described thus: p53-MDM2 TR-FRET assay (p53-MDM2 Assay 1). To be noted: 1.25 nM MDM2-biotinylated, 10 nM Cy5-p53 peptide; read-out: IC50 (μM) of p53-Hdm2 inhibition (TR-FRET) Assay 1. The method in brief: as §1

The target in experiment [3] is T2, human MDM2 protein (amino acids 2-188). Description: p53-MDM2 TR-FRET assay, modified (p53-MDM2 Assay 2). The conditions noted are these: 0.1 nM MDM2, 0.1 nM Europium labeled streptavidin; read-out: IC50 (nM) of p53-Hdm2 inhibition (TR-FRET) Assay 2. The method in brief: as §1

T2 sequence (Q00987 2-188): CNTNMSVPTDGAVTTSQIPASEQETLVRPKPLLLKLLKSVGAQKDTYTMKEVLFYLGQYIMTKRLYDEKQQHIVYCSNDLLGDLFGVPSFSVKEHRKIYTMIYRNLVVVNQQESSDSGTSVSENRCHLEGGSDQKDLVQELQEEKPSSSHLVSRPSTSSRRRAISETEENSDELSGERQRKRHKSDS

A word on the IC50: it is the concentration needed to halve the response being measured. Turning to `COc1cc2c(cc1OC(C)C)[C@H](c1ccc(Cl)cc1)N(c1ccc(C(C)(O)C3CCN(C(=O)COC(C)=O)CC3)cc1)C(=O)C2` (mixture of isomers) [Example 91, Acetic acid 2-[4-(1-{4-[(S)-1-(4-chloro-phenyl)-7-isopropoxy-6-methoxy-3-oxo-3,4-dihydro-1H-isoquinolin-2-yl]-phenyl}-1-hydroxy-ethyl)-piperidin-1-yl]-2-oxo-ethyl ester], the IC50 in experiment [1] is 2.16 µM; in experiment [2], 0.0023 µM; in experiment [3], 1.85 nM.

Take `CNC(=O)N1C2CCC1CC(C(C)(O)c1ccc(N3C(=O)Cc4cc(OC)c(OC(C)C)cc4[C@@H]3c3ccc(Cl)cc3)cc1)C2` (stereo partly drawn) [Example 109, 3-(1-{4-[(S)-1-(4-Chloro-phenyl)-7-isopropoxy-6-methoxy-3-oxo-3,4-dihydro-1H-isoquinolin-2-yl]-phenyl}-1-hydroxy-ethyl)-8-aza-bicyclo[3.2.1]octane-8-carboxylic acid methylamide]: the IC50 in experiment [1] turned out to be 2.5 µM; in experiment [2], 0.0024 µM; in experiment [3] it was 1.7 nM.

As for `COc1cc2c(cc1OC(C)C)[C@H](c1ccc(Cl)cc1)N(c1ccc(C(C)(O)C3CC4CCCC(C3)N4CC(F)(F)F)cc1)C(=O)C2` (stereo partly drawn) [Example 118, (S)-1-(4-Chloro-phenyl)-2-(4-{1-hydroxy-1-[9-(2,2,2-trifluoro-ethyl)-9-aza-bicyclo[3.3.1]non-3-yl]-ethyl}-phenyl)-7-isopropoxy-6-methoxy-1,4-dihydro-2H-isoquinolin-3-one], the half-maximal inhibitory concentration (IC50) was 25.1 µM in experiment [1], 0.0129 µM in experiment [2] and 13.7 nM in experiment [3].

With `COc1cc2c(cc1OC(C)C)[C@H](c1ccc(Cl)cc1)N(c1ccc([C@@](C)(O)C3CC4CCC(C3)S4(=O)=O)cc1)C(=O)C2` (stereo partly drawn) [Example 174, (S)-1-(4-Chloro-phenyl)-2-{4-[(S)-1-(8,8-dioxo-8-thia-bicyclo[3.2.1]oct-3-yl)-1-hydroxy-ethyl]-phenyl}-7-isopropoxy-6-methoxy-1,4-dihydro-2H-isoquinolin-3-one], the IC50 was 1.17 µM in experiment [1], 0.0009 µM in experiment [2] and 0.961 nM in experiment [3].

Regarding `CCN1C2CCC1CC(C(C)(O)c1ccc(N3C(=O)Cc4cc(OC)c(OC(C)C)cc4[C@@H]3c3ccc(Cl)cc3)cc1)C2` (stereo partly drawn) [Example 112, (S)-1-(4-Chloro-phenyl)-2-{4-[1-(8-ethyl-8-aza-bicyclo[3.2.1]oct-3-yl)-1-hydroxy-ethyl]-phenyl}-7-isopropoxy-6-methoxy-1,4-dihydro-2H-isoquinolin-3-one], the results for the half-inhibitory concentration (IC50) in experiment [1], in experiment [2] and in experiment [3] were 3.46 µM, 0.003 µM and 2.76 nM, respectively.

On to `COC(=O)N1CCC(C(C)(O)c2ccc(N3C(=O)Cc4cc(OC)c(OC(C)C)cc4[C@@H]3c3ccc(Cl)cc3)cc2)CC1` (stereo partly drawn) [Example 76, 4-(1-{4-[(S)-1-(4-Chloro-phenyl)-7-isopropoxy-6-methoxy-3-oxo-3,4-dihydro-1H-isoquinolin-2-yl]-phenyl}-1-hydroxy-ethyl)-piperidine-1-carboxylic acid methyl ester], for which the IC50 amounted to 1.91 µM in experiment [1], 0.0017 µM in experiment [2] and 2.34 nM in experiment [3].

`COc1cc2c(cc1OC(C)C)[C@H](c1ccc(Cl)cc1)N(c1ccc(C(C)(O)C3CC4CCC(C3)O4)cc1)C(=O)C2` (mixture of isomers) [Example 158, (S)-1-(4-Chloro-phenyl)-2-{4-[1-hydroxy-1-(8-oxabicyclo[3.2.1]oct-3-yl)-ethyl]-phenyl}-7-isopropoxy-6-methoxy-1,4-dihydro-2H-isoquinolin-3-one]: the IC50 in experiment [1] worked out at 2.84 µM; in experiment [2], 0.0028 µM; in experiment [3], 1.2 nM.

The values above are taken from patent publication US8859535B2, “Hydroxy substituted isoquinolinone derivatives” (Novartis AG, priority 2011, dated 2014).
